This note sets out measurements from US8952033B2, “4-anilinofuro[2,3-b]quinoline derivatives, their preparation processes, and pharmaceutical compositions comprising the same” (Kaohsiung Medical University, priority 2011, dated 2015).

In data set [1] the test system is NCI-H460 (non-small cell lung carcinoma cell). Description: MTT antiproliferative assay (cell growth %, GI50), NCI-H460. In kind it is cell-based. The procedure, abridged:
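Cells exposed to compounds in DMSO or vehicle for 48 hours; MTT (2 mg/mL) added before and after treatment for 2 hours, formazan dissolved in DMSO and OD570 read. GI50 from three determinations, reported as mean±SD.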

Data set [2] deals with SF-268 (central nervous system carcinoma cell). Description: MTT antiproliferative assay (cell growth %, GI50), SF-268. The data set is classed as cell-based. The method, then:
Antiproliferative activities of the compounds of this invention were evaluated substantially according to the method as described in Tseng, C. […] The cells were treated with the test compounds, i.e., the compounds of this invention (in dimethylsulfoxide (DMSO)), or DMSO for 48 hours.
Before and after the treatment with the test compounds or DMSO, 3-(4,5-dimethylthiazol-2-yl)-2,5-diphenyltetrazolium bromide (MTT, 2 mg/mL, 100 μL) was added to each of the cultures, followed by cultivation for 2 hours. The resultant formazan was dissolved by the addition of DMSO. Absorbance at 570 nm (OD570) was measured using a microtiter plate reader (Dynex MRX-II).
Determination of GI50 was conducted thrice for each test compound. GI50 is expressed as mean±SD.
(In general: Tetrazolium dyes change colour on reduction, which living cells bring about.)

The subject of data set [3] is RCC 786-O (renal cell carcinoma cell). Description: Preferential antiproliferative activity, RCC 786-O. The data set is classed as cell-based. The method, then:
(§1) Determination of GI50 of compounds 13a, 13c, 14a, 14c, 15a, 16a was conducted substantially according to the method as described in the preceding section A entitled “Evaluation of antiproliferative activity”, except that the normal cell line MRC-5 was also utilized, and that camptothecin and daunorubicin were tested instead of compounds 1, 2, 3. The concentration of the respective test compound, which can reduce absorbance by 50% (compared with DMSO), is regarded as GI50, and can be determined via dose-response curves. Determination of GI50 was conducted thrice for each test compound. GI50 is expressed as mean±SD.
(§2) SI stands for selectivity index and was calculated by substituting GI50 into the following formula: D=E/F (2) where • D=SI • E=GI50 of the respective test compound for cells of the normal cell line • F=GI50 of the respective test compound for cells of the cancer cell line The experimental results are summarized in Table 4. […]

Data set [4] relates to AGS (human stomach adenocarcinoma cell). Description: Preferential antiproliferative activity, AGS. In kind it is cell-based. The method, then:
as §1, §2

Data set [5] deals with HeLa (human cervical epithelioid carcinoma cell). Description: Preferential antiproliferative activity, HeLa. The data set is classed as cell-based. The method, then:
as §1, §2

Data set [6] relates to SAS (human oral squamous-cell carcinoma cell). Description: Preferential antiproliferative activity, SAS. The data set is classed as cell-based. The method, then:
as §1, §2

In data set [7] the test system is SKHep-1 (hepatocellular carcinoma cell). Description: Preferential antiproliferative activity, SKHep. The data set is classed as cell-based. The method, then:
as §1, §2

Data set [8] is described as follows: Determination of solubility in water. In kind it is physicochemical. The method, then: Determination of solubility in water was conducted substantially according to the method as described in Vougogiannopoulou, K. et al. (2008), J. Med. Chem., 51:6421-6431. An excess amount of the respective test compound was added into water, followed by sonication for 5 minutes. The resultant mixture was stirred at ambient temperature (25±0.1° C.) overnight. Centrifugation at 4000 rpm and 25° C. was conducted for 5 minutes. Absorbance of the sample of the respective test compound was measured at 315-420 nm using a UV-VIS spectrophotometer (JASCO UV-Visible V570). For each test compound, a standard curve was generated by plotting concentrations of standard solutions and the corresponding absorbances. The absorbance of the sample of each test compound was then converted to solubility in water (μg/mL) using the corresponding standard curve.

The next data set has as its system NCI-H460 cells. Description: In vivo inhibition of lung cancer cells, NCI-H460 tumor in nude mice. Set-up: species or system Balb/C athymic nude mice. As to conditions: for Survival rate: Day 80 (control all dead). The method, then: 10^6 NCI-H460 cells were mixed evenly with a proper amount of Matrigel (BD Biosciences). The resultant mixture was injected subcutaneously into each of the nude mice on a dorsal flank close to an upper portion of a hind leg.
The nude mice bearing a tumor were randomly divided into two groups. The first group (n=14) of the nude mice was used to evaluate the effect of compound 13a after intraperitoneal injection, and was further divided into three subgroups including 10 mg/kg group (n=4), 20 mg/kg group (n=6), and a control group (n=4). Compound 13a (in DMSO/Tween 80/PBS (1/1/8, v/v/v)) was administered to the nude mice in 10 mg/kg group and 20 mg/kg group respectively at a dose of 10 mg/kg and a dose of 20 mg/kg via intraperitoneal injection, and 5% dextrose was administered to the nude mice in the control group at the same dosing volume as compound 13a via intraperitoneal injection.
The second group (n=28) of the nude mice was used to evaluate the effect of compound 13a after oral administration, and was further divided into three subgroups including 60 mg/kg group (n=10), 120 mg/kg group (n=10), and a control group (n=8). Compound 13a (in a normal saline solution containing 1% DMSO, 1.4% Tween 80, and 1% sodium carboxymethyl cellulose (Sigma), and serving as a vehicle) was administered to the nude mice in 60 mg/kg group and 120 mg/kg group respectively at a dose of 60 mg/kg and a dose of 120 mg/kg via tube feeding (0.22-0.26 mL of the mixture of compound 13a and the vehicle/nude mouse), and the vehicle was administered to the mice in the control group at a dose of 10 mL/kg via tube feeding.
Administration was conducted once daily for 6 consecutive days. For the first group of the nude mice, the size of the tumor on the dorsal flank was measured with calipers every 9 days for 100 consecutive days. For the second group of the nude mice, the survival rate was calculated every 10 days starting on Day 1 (i.e., the day of the […] administration) for 80 consecutive days, and the size of the tumor on the dorsal flank was measured with the calipers every 3 days for 32 consecutive days.

Values after ≈ are worked out from the molar mass of the structure shown.

A word on the GI50: it is the concentration at which growth is held to half of that of the control. With `C/C(=N\OCCN)c1ccc(Nc2c3ccccc3nc3occc23)cc1` [Compound 13a, (E)-1-(4-(furo[2,3-b]quinolin-4-ylamino)phenyl)ethanone O-2-aminoethyl oxime], the “SI NCI-H460” value in data set [1] (GI50 MRC-5 / GI50 NCI-H460) was determined as 68.02. Moreover, the activity at 4000 µg/mL in data set [1] (Homo sapiens, NCI-H460, 4 mg/ml, 48 hours, MTT) was determined as 33%. Besides, the activity at 20000 µg/mL in [1] (Homo sapiens, NCI-H460, 20 mg/ml, 48 hours, MTT) is -1%. Also, the GI50 in [1] (Homo sapiens, NCI-H460, mean±SD, read-out: GI50 NCI-H460) stood at 0.63 ± 0.03 µM; in data set [2] (Homo sapiens, SF-268, mean±SD, read-out: GI50 SF-268) it was 6.26 ± 1.02 µM; in [3] (Homo sapiens, 786-0, mean±SD), 24 ± 2 µM; in [4] (Homo sapiens, mean±SD), 13.77 ± 0.04 µM; in data set [5] (Homo sapiens, HeLa, mean±SD), 8.31 ± 0.6 µM; in data set [6] (Homo sapiens, mean±SD), 15.5 ± 2.6 µM. Further, in [7] (Homo sapiens, SK-HEP1, mean±SD), the GI50 amounted to 13.1 ± 3.75 µM. For the same compound, the “SI SF-268” value in [2] (GI50 MRC-5 / GI50 SF-268) was determined as 6.84. For the same compound, the “SI RCC 786-O” value in data set [3] (versus MRC-5) was determined as 1.77. Also, the “SI AGS” value in data set [4] (versus MRC-5) is on record as 3.09. In addition, the “SI HeLa” value in data set [5] (versus MRC-5) turned out to be 5.16. For the same compound, the “SI SAS” value in data set [6] (versus MRC-5) was determined as 2.76. Also, in data set [7] (versus MRC-5), the “SI SKHep” value was 3.26. The Solubility in water in data set [8] (25±0.1° C., stirred overnight, UV-VIS) is 63 µg/mL (≈ 175 µM). In [8] (fold versus compound 2), the “Solubility in water relative to compound 2” value was “about six times higher”. Further, the “Size of the tumor” value with NCI-H460 cells (intraperitoneal injection, 10 mg/kg and 20 mg/kg once daily for 6 days, versus control) is “generally grew more slowly with time”; with NCI-H460 cells (oral administration, 60 mg/kg and 120 mg/kg once daily for 6 days, versus control) it was “generally grew more slowly with time”; with NCI-H460 cells (oral administration, 120 mg/kg once daily for 6 days) it was “diminished in size after Day 16”. Moreover, the Survival rate worked out at 50% in the data set on NCI-H460 cells (oral administration, 60 mg/kg group) and 50% in the data set with NCI-H460 cells (oral administration, 120 mg/kg group).
